Measurements from US5658880A, “Sialic acid/fucose based medicaments” (Glycomed Incorporated, priority 1994, dated 1997).

Columns and labels:
[1] = tested on: neutrophil migration into the peritoneum; assay: Murine thioglycollate induced peritonitis: neutrophil migration to the peritoneal cavity; type: in vivo, mouse (Swiss Webster)
Description: The efficaciousness of 7 and 10 was shown using a murine thioglycollate induced peritonitis model. The assay materials and methods are known in the art, or are generally described by Lewinsohn, D. et al., J. Immun., 138:4313-4321 (1987), or Watson, S. et al., Nature 349:164-166 (1991). This assay measures the ability of the compounds to inhibit neutrophil migration to the peritoneal cavity, the migration being initiated by the presence of thioglycollate in the peritoneal cavity. Thioglycollate is a known and effective inflammatory agent that causes neutrophil migration into the mouse peritoneum when it is administered intraperitoneally. Lewinsohn, D. et al., J. Immun. (1987) 138:4313-4321. Briefly, female Swiss Webster mice weighing about 25 grams were injected in the tail vein with 200 μl of phosphate buffered saline (PBS) with or without the appropriate compound. The pH of the solutions was adjusted to neutrality by the addition of either NaOH or HCL and sterilized by filtration through a 0.2 μ filter. Immediately following injection with the appropriate compound or PBS, the mice were injected intraperitoneally with 1 ml of thioglycollate medium prepared as described by the manufacturer, BBL. Three hours following injection of the thioglycollate solution the mice were sacrificed by CO2 asphyxiation, and the number of cells in the peritoneum removed by lavage with 5 ml of heparinized (5 U/ml) 0.9% sodium chloride solution containing 0.1% bovine serum albumin. Cell number was determined using a Coulter Counter. The cells were prepared for counting by diluting the lavage fluid with 1:50 of a commercial physiological isotonic solution, Isoton II, and the cells lysed by adding S/P Lysing and Hemoglobin Reagent (1:100 final dilution). Cell nuclei were counted in a sized window with lower and upper limits set at 3.9 and 5.7 μm, respectively.

L-selectin = assay: ELISA: inhibition of L-selectin-IgG chimera binding to 2,3 sLe^x glycolipid; design: species or system human
Description: (§1) An ELISA assay is preferably used that employs recombinant fusion proteins composed of extracellular portions of the human selectins joined to human immunoglobulin heavy chain CH3, CH2, and hinge regions. See, for example, Walz et al., Science (1990) 250:1132; Aruffo et al., Cell (1991) 67:35; Aruffo et al., Proc. Natl. Acad. Sci. USA. (1992) 89:2292. The assay is well known in the art, and generally consists of the following three steps:
(§2) I. 2,3 sLe^x glycolipid (25 picomole/well) was transferred into microtiter wells as solutions and then evaporated off. Excess, which remained unattached, was washed off with water. The wells were then blocked with 5% BSA at room temperature for an hour and then washed with PBS containing 1 mM calcium.
(§3) II. Preparation of "multivalent" receptor of the Selectin-lgG chimera was carried out by combining the respective chimera (1 μg/mL) with biotin labelled goat F(ab')2 anti-human IgG (Fc specific) and streptavidin-alkaline phosphatase diluted 1:1000 in 1% BSA-PBS (1 mM calcium) and incubating at 37° C. for 15 min. This allowed the soluble multivalent receptor complex to form. III. Potential inhibitors such as the compounds of formula I or II were allowed to react with the soluble receptor at 37° C. for 45 min. This test assumes that optimal binding, between the soluble phase receptor complex and the inhibitor (non natural ligand), would have occurred within this time frame. This solution was then placed in the microtiter wells that were prepared in step I. The plate was incubated at 37° C. for 45 minutes to allow the soluble receptor to bind to its natural ligand. In the presence of a strong inhibitor only a few receptors should be free to bind to the microtiter plate coated with the natural ligand.
(§4) The positive control is the signal produced by the soluble receptor when it is allowed to react with 2,3 sLe^x glycolipid in the microtiter wells in the absence of any inhibitor. This positive control was considered 100% binding. The signal produced by the receptor that had been previously treated with an inhibitor (recorded as O.D.), was divided by the signal produced by the positive control and multiplied by 100 to calculate the % receptor bound to the well in the presence of the inhibitor. The reciprocal of this number is the % inhibition.
as §1, with “was employed” for “is preferably used”, “uses” for “employs”, “USA” for “USA.”
(§5) II. Preparation of "multivalent" receptor of the Selectin-IgG chimera was carried out by combining the respective chimera 1 μg/ml) with biotin labelled goat F(ab')2 anti-human IgG (Fc specific) and streptavidin-alkaline phosphatase diluted 1:1000 in 1% BSA-PBS (1 mM calcium) and incubating at 37° C. for 15 min. This allowed the soluble multivalent receptor complex to form.
(§6) III. Potential inhibitors such as compounds of formula I or II were allowed to react with the soluble receptor at 37° C. for 45 min. This test assumes that optimal binding, between the soluble phase receptor complex and the inhibitor (non natural ligand), would have occurred within this time frame. This solution was then placed in the microtiter wells that were prepared in step I. The plate was incubated at 37° C. for 45 minutes to allow the soluble receptor to bind to its natural ligand. In the presence of a strong inhibitor only a few receptors should be free to bind to the microtiter plate coated with the natural ligand.
(§7) The positive control is the signal produced by the soluble receptor when it is allowed to react with 2,3 sLe^x glycolipid in the microtiter wells in the absence of any inhibitor. This was considered 100% binding. […]

human neutrophils = assay: Reperfusion injury assay: complement-induced human neutrophil adhesion in rabbit isolated heart; design: species or system human neutrophils; New Zealand White rabbit heart; conditions: 4% normal human plasma, 0.1 mg/ml (0.001, 0.01 and 0.1 mg/ml tested), read-out: % Neutrophil Inhibition (neutrophil accumulation)
Description: Experiments were done to determine the effectiveness of compound 7 in decreasing adhesion of human neutrophils in the rabbit isolated heart. Addition of the human plasma to the rabbit isolated heart results in activation of the complement components found within the plasma, which in turn promotes an increase in the neutrophil accumulation. This model is used to determine the effect of sLe^x analogues on inhibiting complement-induced neutrophil adhesion. Hearts from New Zealand White rabbits were excised, mounted on a modified Langendorff apparatus and perfused with Krebs-Heinseleit buffer. Cardiac functional parameters were monitored upon a Grass Model 79D polygraph machine. 4% normal human plasma (NHP) was added to the recirculating buffer. Ten minutes after the addition of the plasma, 13b (0.1 mg/ml) was added to the perfusate. After 15 minutes of perfusion with the plasma, 51-chromium labelled human neutrophils (1×10^5 /ml) were added to the perfusate and allowed to recirculate for an additional 15 minutes. At the end of this time the hearts were washed with fresh buffer to remove non-specifically bound neutrophils, dried and counted in a well type gamma-counter. A concentration response curve was generated using concentrations of 0.001, 0.01 and 0.1 mg/ml. […] Table 3 lists the results, expressed as the percent inhibition of neutrophil accumulation.

P-selectin = assay: ELISA: inhibition of P-selectin-IgG chimera binding to 2,3 sLe^x glycolipid; design: species or system human; conditions: inhibition of binding to 2,3 sLex glycolipid
Description: as §1, §2, §3, §4
as §1, with “was employed” for “is preferably used”, “uses” for “employs”, “USA” for “USA.”
as §5, §6, §7

CC(=O)NC1C(O)CC(OCCCCCCOC2OC(C)C(O)C(O)C2O)(C(=O)O)OC1C(O)C(O)CO [Compound 7, 1-O-α-Neu5Ac-(6-O-α-L-Fucopyranosyl)-Hexane]
inhibited more neutrophil migration than 10 ([1]; 7 compared with 10, FIG. 7): about 30% | inhibit neutrophil migration into the peritoneum ([1]; mice, tail vein injection, 3 h after thioglycollate, FIG. 7(a) and (b)): inhibit neutrophil migration into the peritoneum | inhibition of L-selectin binding to 2,3 sLe^x glycolipid (L-selectin; FIG. 5 and FIG. 6, result in words): inhibit L-selectin binding in a concentration dependent manner | IC50 (L-selectin; inhibition of binding to 2,3 sLex glycolipid): 1000 to 3000 µM | inhibition at 100 µg/mL (human neutrophils): 30% | IC50 (P-selectin): > 4000 µM
